The values below are quoted from earlier work in patent US8945626B2, “Preparation of pharmaceutical compositions” (priority 2006, dated 2015).

For `CC(=O)Nc1ccc(O)cc1` [Paracetamol, 4-Acetamidophenol], the “solubility in cold water” value is “very slightly soluble”.
